# Laboratory results published in patent US20240148821A1, “PHARMACEUTICAL USE OF CYCLIC PEPTIDE COMPOUND” (CHUGAI SEIYAKU KABUSHIKI KAISHA, priority 2021, published 2024).
# Bridge positions count the residues as written; N and C are the ends. Square brackets hold non-standard residues; d marks the D form. Peptide text beside a SMILES is read from it. * marks the point of attachment. hPhe(3-Cl-4-CF3) = N[C@@H](CCc1ccc(C(F)(F)F)c(Cl)c1)C(=O)O; NMeCha = CN[C@@H](CC1CCCCC1)C(=O)O; NMeChg = CN[C@H](C(=O)O)C1CCCCC1; NMeD = CN[C@@H](CC(=O)O)C(=O)O; NMeL = CN[C@@H](CC(C)C)C(=O)O; Piperidide = C1CCN(*)CC1; Ac5c = NC1(C(=O)O)CCCC1; Sar = CNCC(=O)O
# Assays:
# [1] = biological target: protein-protein interaction between Kras and SOS1 (biotin-tagged human Kras loaded with GDP, His-tagged human SOS1) (Homo sapiens (Human), UniProt P01116, G12D); assay: Protein-protein interaction inhibition between Kras and SOS1 (KrasG12D-SOS PPI) using AlphaScreen; format: biochemical; conditions: AlphaScreen; biotin-tagged human Kras loaded with GDP, His-tagged human SOS1; read-out: KRAS G12D-SOS PPI IC50;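 further: kras produced in E. coli, Ni-coupled donor beads and streptavidin acceptor beads, excitation 680 nm with emission detected at 520–620 nm via singlet oxygen transfer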
# [2] = tested on: various cancer cell lines (Ras mutation or amplification); assay: Measurement of cell growth inhibitory activity against various cancer cell lines (CellTiter-Glo); format: cell-based, human
# Procedure: Various cancer cell lines used were purchased from commercial suppliers. […] The cell suspension and culture medium supplemented with serum were dispensed to a plate containing the test compounds at 40 μL (384 well plate) or 200 μL (96 well plate) per well and incubated in a carbon dioxide gas incubator. […] Six days or seven days after the start of cultivation, 20 μL of CellTiter-Glo (Promega) was added to each well and fluorescence was measured.
# A549 (NSCLC) = assay: In vivo antitumor activity, mouse xenograft model, A549; conditions: 10 days
# Source text: Tumor growth inhibition rate (TGI %)=(1−TV/CV)×100
smiles,measurement,setting,value
"CC[C@H](C)[C@@H]1NC(=O)[C@H](CC(C)C)N(C)C(=O)C[C@@H](C(=O)N2CCCCC2)N(C)C(=O)[C@H](C2CCCCC2)N(C)C(=O)C2(CCCC2)NC(=O)[C@@H]2CCCN2C(=O)[C@H](CCc2ccc(C(F)(F)F)c(Cl)c2)NC(=O)CN(C)C(=O)[C@H](CC2CCCCC2)N(C)C(=O)CN(C)C(=O)CN(C)C1=O [Compound 558, (3S,9S,18S,21S,25S,28S,34S)-3-[2-[3-chloro-4-(trifluoromethyl)phenyl]ethyl]-28-cyclohexyl-9-(cyclohexylmethyl)-21-isobutyl-7,10,13,16,22,26,29-heptamethyl-18-[(1S)-1-methylpropyl]-25-(piperidine-1-carbonyl)spiro[1,4,7,10,13,16,19,22,26,29,32-undecazabicyclo[32.3.0]heptatriacontane-31,1′-cyclopentane]-2,5,8,11,14,17,20,23,27,30,33-undecone] ([NMeL]I[Sar][Sar][NMeCha][Sar][hPhe(3-Cl-4-CF3)]P[Ac5c][NMeChg][NMeD]-Piperidide; lactam N-11)",IC50,[1],1.8 nM
same,IC50,"[2]; A4/Fuk, Non-Hodgkin lymphoma, KRAS Amp",5.83 nM
same,IC50,"[2]; A549, NSCLC, KRAS G12S",7.98 nM
same,IC50,"[2]; KURAMOCHI, Ovary, KRAS Amp",23.4 nM
same,IC50,"[2]; LS 180, Colon, KRAS G12D",22.6 nM
same,IC50,"[2]; MIA PaCa-2, Pancreas, KRAS G12C",18.7 nM
same,IC50,"[2]; NCI-H441, NSCLC, KRAS G12V",31.6 nM
same,IC50,"[2]; NCI-H929, Myeloma, NRAS G13D",55.7 nM
same,IC50,"[2]; SNU-1, Stomach, KRAS G12D",29.8 nM
same,IC50,"[2]; SW480, Colon, KRAS G12V",17.5 nM
same,TGI (%),A549 (NSCLC); 10 mg/kg once daily,46%
same,TGI (%),A549 (NSCLC); 15 mg/kg once daily,57%
same,TGI (%),A549 (NSCLC); 30 mg/kg once daily,106%
